According to patent publication US20030162777A1, “Novel N-acylated heterocycles” (Recordati S.A., priority 2001, published 2003):

These molecules were tested against T1, human 5HT1A-serotonergic receptor (Homo sapiens, UniProt P08908) (assay: Radioligand binding to recombinant 5-HT1A receptors). Conditions: [3H]8-OH-DPAT 1 nM, membranes of HeLa cells with human 5-HT1A receptor; Ki from IC50 by Cheng & Prusoff; read-out: Binding affinity for 5HT1A receptors, Ki.
T1 construct: expressed in transfected cells; host or cells: HeLa (human cell line), stably transfected; cell membranes used
T1 sequence (P08908 1-422): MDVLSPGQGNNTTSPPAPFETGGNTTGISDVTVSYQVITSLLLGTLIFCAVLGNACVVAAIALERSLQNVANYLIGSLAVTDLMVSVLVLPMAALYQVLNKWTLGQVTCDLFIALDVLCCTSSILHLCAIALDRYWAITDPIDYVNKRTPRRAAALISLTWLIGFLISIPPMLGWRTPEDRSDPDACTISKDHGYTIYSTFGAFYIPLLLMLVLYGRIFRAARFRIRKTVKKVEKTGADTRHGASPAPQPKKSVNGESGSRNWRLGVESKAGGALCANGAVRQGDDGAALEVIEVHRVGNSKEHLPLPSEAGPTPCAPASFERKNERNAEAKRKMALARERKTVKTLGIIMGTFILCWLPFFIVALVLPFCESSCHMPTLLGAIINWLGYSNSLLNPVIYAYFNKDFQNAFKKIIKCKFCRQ
Procedure: Genomic clone G-21 coding for the human 5HT1A-serotonergic receptor was stably transfected in a human cell line (HeLa). HeLa cells were grown as monolayers in Dulbecco's modified Eagle medium (DMEM), containing 10% foetal bovine serum, gentamicin ([…]) and 5% carbon dioxide, at 37° C. The cells were detached from the growth flask at 95% confluence by a cell scraper and were lysed in cold 5 mM Tris and 5 mM EDTA buffer (pH 7.4). The homogenates were centrifuged at 40000×g×20 minutes and the pellets were resuspended in a small volume of cold 5 mM Tris and 5 mM EDTA buffer (pH 7.4) and immediately frozen and stored at −70° C. until use. On the day of experiment, the cell membranes were resuspended in incubation buffer: 50 mM Tris HCl (pH 7.4), 2.5 mM MgCl2, […] (Fargin et al., Nature 335, 358-360, 1988). The membranes were incubated in a final volume of 1 ml for 30 minutes at 30° C. with 1 nM [^3H]8-OH-DPAT, in the absence or presence of the test compounds. Non-specific binding was determined in the presence of 10 μM 5-HT. Incubation was stopped by addition of cold Tris-HC 1 buffer and rapid filtration through a 0.2%-polyethyleneimine-pretreated Whatman-GF/B or Schleicher-&-Schuell-GF52 filter.
The affinity of the tested compounds was evaluated as inhibition of specific binding of the radioligand to 5-HT1A receptors (IC50) by using the non-linear curve-fitting program Allfit (De Lean et al., Am. J. Physiol. 235, E97-E102 (1978). The IC50 value was converted to an affinity constant (Ki) by the equation of Cheng & Prusoff (Cheng Y. C., Prusoff W. H., Biochem. Pharmacol. 22, 3099-3108 (1973)).

| SMILES | Ki [µM] |
| --- | --- |
| CN(C)c1ccc(C(=O)N2c3ccccc3CCC2CN2CCN(c3cccc4[nH]ccc34)CC2)cc1 (stereo not drawn) [Example 68A1, 1-[1-(4-Dimethylaminobenzoyl)-1,2,3,4-tetrahydroquinoline-2-ylmethyl]-4-(4-indolyl)piperazine] | 0.0239 |
| O=C(Cc1ccccc1)N1c2ccccc2CCC1CN1CCN(c2cccc3[nH]ccc23)CC1 (stereo not drawn) [Example 68A2, 1-(4-Indolyl)-4-[1-(2-phenylacetyl)-1,2,3,4-tetrahydroquinoline-2-ylmethyl]piperazine] | 0.0139 |
| CC(C)C(=O)N1c2ccccc2CCC1CN1CCN(c2cccc3[nH]ccc23)CC1 (stereo not drawn) [Example 68A9, 1-(4-Indolyl)-4-[1-(2-methylpropionyl)-1,2,3,4-tetrahydroquinoline-2-ylmethyl]piperazine] | 0.0246 |
| O=C(c1ccsc1)N1c2ccccc2CCC1CN1CCN(c2cccc3[nH]ccc23)CC1 (stereo not drawn) [Example 68A20, 1-(4-Indolyl)-4-[1-(3-thienylcarbonyl)-1,2,3,4-tetrahydroquinoline-2-ylmethyl]piperazine] | 0.0307 |
| O=C(c1ccc(C(F)(F)F)cc1)N1c2ccccc2CCC1CN1CCN(c2cccc3[nH]ccc23)CC1 (stereo not drawn) [Example 68A23, 1-(4-Indolyl)-4-[1-(4-trifluoromethylbenzoyl)-1,2,3,4-tetrahydroquinoline-2-ylmethyl]piperazine] | 0.0428 |
| O=C(CCc1ccccc1)N1c2ccccc2CCC1CN1CCN(c2cccc3[nH]ccc23)CC1 (stereo not drawn) [Example 68A24, 1-(4-Indolyl)-4-[1-(3-phenylpropionyl)-1,2,3,4-tetrahydroquinoline-2-ylmethyl]piperazine] | 0.0329 |
| O=C(c1c(F)cccc1F)N1c2ccccc2CCC1CN1CCN(c2cccc3[nH]ccc23)CC1 (stereo not drawn) [Example 68A28, 1-[1-(2,6-Difluorobenzoyl)-1,2,3,4-tetrahydroquinoline-2-ylmethyl]-4-(4-indolyl)piperazine] | 0.0344 |
| O=C(Cc1ccc(Cl)cc1)N1c2ccccc2CCC1CN1CCN(c2cccc3[nH]ccc23)CC1 (stereo not drawn) [Example 68A30, 1-[1-[2-(4-Chlorophenyl)acetyl]-1,2,3,4-tetrahydroquinoline-2-ylmethyl]-4-(4-indolyl)piperazine] | 0.0238 |
| O=C(Cc1ccc(C(F)(F)F)cc1)N1c2ccccc2CCC1CN1CCN(c2cccc3[nH]ccc23)CC1 (stereo not drawn) [Example 68A31] | 0.0418 |
| O=C(c1ccncc1)N1c2ccccc2CCC1CN1CCN(c2cccc3[nH]ccc23)CC1 (stereo not drawn) [Example 68A34, 1-(4-Indolyl)-4-[1-(4-pyridylcarbonyl)-1,2,3,4-tetrahydroquinoline-2-ylmethyl]piperazine] | 0.0249 |
| CC(=O)N1CCC(C(=O)N2c3ccccc3CCC2CN2CCN(c3cccc4[nH]ccc34)CC2)CC1 (stereo not drawn) [Example 68A38, 1-[1-(1-Acetylpiperidine-4-carbonyl)-1,2,3,4-tetrahydroquinoline-2-ylmethyl]-4-(4-indolyl)piperazine] | 0.0244 |
| O=C(Cc1cccs1)N1c2ccccc2CCC1CN1CCN(c2cccc3[nH]ccc23)CC1 (stereo not drawn) [Example 68A39, 1-(4-Indolyl)-4-[1-[2-(2-thienylacetyl)]-1,2,3,4-tetrahydroquinoline-2-ylmethyl]piperazine] | 0.0068 |
| O=C(Cc1ccsc1)N1c2ccccc2CCC1CN1CCN(c2cccc3[nH]ccc23)CC1 (stereo not drawn) [Example 68A40, 1-(4-Indolyl)-4-[1-[2-(3-thienylacetyl)]-1,2,3,4-tetrahydroquinoline-2-ylmethyl]piperazine] | 0.0075 |
| O=C(CCc1cccnc1)N1c2ccccc2CCC1CN1CCN(c2cccc3[nH]ccc23)CC1 (stereo not drawn) [Example 68A41, 1-(4-Indolyl)-4-[1-[3-(3-pyridylpropionyl)]-1,2,3,4-tetrahydroquinoline-2-ylmethyl]piperazine] | 0.0491 |
| O=C(COc1ccccc1)N1c2ccccc2CCC1CN1CCN(c2cccc3[nH]ccc23)CC1 (stereo not drawn) [Example 68A42, 1-(4-Indolyl)-4-[1-(2-phenoxyacetyl)-1,2,3,4-tetrahydroquinoline-2-ylmethyl]piperazine] | 0.0198 |
| COc1ccc(CC(=O)N2c3ccccc3CCC2CN2CCN(c3cccc4[nH]ccc34)CC2)cc1 (stereo not drawn) [Example 68A43, 1-(4-Indolyl)-4-[1-[2-(4-methoxyphenylacetyl)]-1,2,3,4-tetrahydroquinoline-2-ylmethyl]piperazine] | 0.0427 |
| O=C(Cc1ccccc1Cl)N1c2ccccc2CCC1CN1CCN(c2cccc3[nH]ccc23)CC1 (stereo not drawn) [Example 68A45, 1-[1-[2-(2-Chlorophenylacetyl)]-1,2,3,4-tetrahydroquinoline-2-ylmethyl]-4-(4-indolyl)piperazine] | 0.0086 |
| CN(CC(=O)N1c2ccccc2CCC1CN1CCN(c2cccc3[nH]ccc23)CC1)C(=O)c1ccccc1 (stereo not drawn) [Example 68A46, 1-[1-[2-(N-Benzoyl-N-methylamino)acetyl]-1,2,3,4-tetrahydroquinoline-2-ylmethyl]-4-(4-indolyl)piperazine] | 0.0349 |
| O=C(Cc1ccc2c(c1)OCO2)N1c2ccccc2CCC1CN1CCN(c2cccc3[nH]ccc23)CC1 (stereo not drawn) [Example 68A49, 1-[1-[2-(5-Benzo[1,3]dioxolyl)acetyl]-1,2,3,4-tetrahydroquinoline-2-ylmethyl]-4-(4-indolyl)piperazine] | 0.0187 |

The remaining molecules from weak to strong by Ki, led by results:

| Ki [µM] | SMILES |
| --- | --- |
| 0.0207 | O=C(COCc1ccccc1)N1c2ccccc2CCC1CN1CCN(c2cccc3[nH]ccc23)CC1 (stereo not drawn) [Example 68A44, 1-(4-Indolyl)-4-[1-(2-phenylmethoxyacetyl)-1,2,3,4-tetrahydroquinoline-2-ylmethyl]piperazine] |
| 0.0194 | O=C(c1ccccn1)N1c2ccccc2CCC1CN1CCN(c2cccc3[nH]ccc23)CC1 (stereo not drawn) [Example 68A32, 1-(4-Indolyl)-4-[1-(2-pyridylcarbonyl)-1,2,3,4-tetrahydroquinoline-2-ylmethyl]piperazine] |
| 0.0171 | Cn1cc(C(=O)N2c3ccccc3CCC2CN2CCN(c3cccc4[nH]ccc34)CC2)c2ccccc21 (stereo not drawn) [Example 68A47, 1-(4-Indolyl)-4-[1-(1-methyl-3-indolylcarbonyl)-1,2,3,4-tetrahydroquinoline-2-ylmethyl]piperazine] |
| 0.0142 | O=C(c1cccc(Cl)c1)N1c2ccccc2CCC1CN1CCN(c2cccc3[nH]ccc23)CC1 (stereo not drawn) [Example 68A6, 1-[1-(3-Chlorobenzoyl)-1,2,3,4-tetrahydroquinoline-2-ylmethyl]-4-(4-indolyl)piperazine] |
| 0.0133 | O=C(c1cccnc1)N1c2ccccc2CCC1CN1CCN(c2cccc3[nH]ccc23)CC1 (stereo not drawn) [Example 68A33, 1-(4-Indolyl)-4-[1-(3-pyridylcarbonyl)-1,2,3,4-tetrahydroquinoline-2-ylmethyl]piperazine] |
| 0.0107 | CC(C)(C)C(=O)N1c2ccccc2CCC1CN1CCN(c2cccc3[nH]ccc23)CC1 (stereo not drawn) [Example 68A36, 1-[1-(2,2-Dimethylpropionyl)-1,2,3,4-tetrahydroquinoline-2-ylmethyl]-4-(4-indolyl)piperazine] |
| 0.0071 | N#Cc1ccc(C(=O)N2c3ccccc3CCC2CN2CCN(c3cccc4[nH]ccc34)CC2)cc1 (stereo not drawn) [Example 68A3, 1-[1-(4-Cyanobenzoyl)-1,2,3,4-tetrahydroquinoline-2-ylmethyl]-4-(4-indolyl)piperazine] |
| 0.0047 | O=C(c1ccccc1Cl)N1c2ccccc2CCC1CN1CCN(c2cccc3[nH]ccc23)CC1 (stereo not drawn) [Example 68A4, 1-[1-(2-Chlorobenzoyl)-1,2,3,4-tetrahydroquinoline-2-ylmethyl]-4-(4-indolyl)piperazine] |
| 0.0041 | O=C(c1cccs1)N1c2ccccc2CCC1CN1CCN(c2cccc3[nH]ccc23)CC1 (stereo not drawn) [Example 68A19, 1-(4-Indolyl)-4-[1-(2-thienylcarbonyl)-1,2,3,4-tetrahydroquinoline-2-ylmethyl]piperazine] |
| 0.004 | O=C(c1ccc(Cl)cc1)N1c2ccccc2CCC1CN1CCN(c2cccc3[nH]ccc23)CC1 (stereo not drawn) [Example 68A5, 1-[1-(4-Chlorobenzoyl)-1,2,3,4-tetrahydroquinoline-2-ylmethyl]-4-(4-indolyl)piperazine] |
| 0.0026 | CC(C)CC(=O)N1c2ccccc2CCC1CN1CCN(c2cccc3[nH]ccc23)CC1 (stereo not drawn) [Example 68A12, 1-(4-Indolyl)-4-[1-(3-methylbutanoyl)-1,2,3,4-tetrahydroquinoline-2-ylmethyl]piperazine] |
